Data from ChEMBL document CHEMBL1201862, “PubChem BioAssay data set” (2004).
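Cultured in 96-well plates, cells were exposed to test compound for 48 hours across five concentrations. The concentration for 50% growth inhibition is given as GI50.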 Activity calls are given as the source filed them. Cut-off read from the data, not from the text of the source: active = GI50 up to about 1.1 µM and inactive = higher.

Tests used:
Experiment in all cases: growth of human tumour cells (NCI), 48 h
UO-31 = tested on: UO-31
NCI-H460 = tested on: NCI-H460
OVCAR-8 = tested on: OVCAR-8
HOP-92 = tested on: HOP-92
NCI/ADR-RES = tested on: NCI/ADR-RES
SK-MEL-2 = tested on: SK-MEL-2
SF-295 = tested on: SF-295
HL-60 = tested on: HL-60
CAKI-1 = tested on: CAKI-1
DU-145 = tested on: DU-145
T47D = tested on: T47D
A498 = tested on: A498
MCF7 = tested on: MCF7
COLO 205 = tested on: COLO 205
K562 = tested on: K562
UACC-62 = tested on: UACC-62
NCI-H226 = tested on: NCI-H226
LOX IMVI = tested on: LOX IMVI
OVCAR-5 = tested on: OVCAR-5
TK-10 = tested on: TK-10
SF-539 = tested on: SF-539
SW-620 = tested on: SW-620
NCI-H23 = tested on: NCI-H23
UACC-257 = tested on: UACC-257
OVCAR-3 = tested on: OVCAR-3
SF-268 = tested on: SF-268
Malme-3M = tested on: Malme-3M
SK-OV-3 = tested on: SK-OV-3
HOP-62 = tested on: HOP-62
M14 = tested on: M14
ACHN = tested on: ACHN
SNB-75 = tested on: SNB-75
SK-MEL-28 = tested on: SK-MEL-28
U-251 = tested on: U-251
SN12C = tested on: SN12C
786-0 = tested on: 786-0
A549 = tested on: A549
OVCAR-4 = tested on: OVCAR-4
CCRF-CEM = tested on: CCRF-CEM
HCC 2998 = tested on: HCC 2998
HCT-15 = tested on: HCT-15
KM12 = tested on: KM12
EKVX = tested on: EKVX
HCT-116 = tested on: HCT-116
PC-3 = tested on: PC-3
IGROV-1 = tested on: IGROV-1
SK-MEL-5 = tested on: SK-MEL-5
MDA-MB-231 = tested on: MDA-MB-231
HT-29 = tested on: HT-29
MDA-N = tested on: MDA-N
MOLT-4 = tested on: MOLT-4
RPMI-8226 = tested on: RPMI-8226
BT-549 = tested on: BT-549
Hs-578T = tested on: Hs-578T
SNB-19 = tested on: SNB-19
MDA-MB-435 = tested on: MDA-MB-435
RXF 393 = tested on: RXF 393

In the case of `Cc1cc2oc(=N)c(C#N)c(C)c2cc1C`, the GI50 (UO-31) is reported as 45.1 µM (inactive), the GI50 (NCI-H460) is reported as 46.7 µM (inactive) and the GI50 (OVCAR-8) is reported as 72.3 µM (inactive). For the same compound, the GI50 (HOP-92) was 44.2 µM (inactive), the GI50 (NCI/ADR-RES) was 55.1 µM (inactive) and the GI50 (SK-MEL-2) was 51.8 µM (inactive). For the same compound, the GI50 (SF-295) was 44.6 µM (inactive), the GI50 (HL-60) was 33.4 µM (inactive) and the GI50 (CAKI-1) was 57.8 µM (inactive). For the same compound, the GI50 (DU-145) was 84.7 µM (inactive), the GI50 (T47D) was 40.6 µM (inactive) and the GI50 (A498) was > 100 µM (inactive). The GI50 (MCF7) was 31.9 µM (inactive), the GI50 (COLO 205) was 48.1 µM (inactive) and the GI50 (K562) was 24.5 µM (inactive). The GI50 (UACC-62) was 47.4 µM (inactive), the GI50 (NCI-H226) was 87.7 µM (inactive) and the GI50 (LOX IMVI) was 90.2 µM (inactive). The GI50 (OVCAR-5) was > 100 µM (inactive), the GI50 (TK-10) was 67.3 µM (inactive) and the GI50 (SF-539) was 62.8 µM (inactive). The GI50 (SW-620) was 67.6 µM (inactive), the GI50 (NCI-H23) was 31.3 µM (inactive) and the GI50 (UACC-257) was > 100 µM (inactive). For the same compound, the GI50 (OVCAR-3) was 70.1 µM (inactive), the GI50 (SF-268) was 44 µM (inactive) and the GI50 (Malme-3M) was 43 µM (inactive). The GI50 (SK-OV-3) was 35.2 µM (inactive), the GI50 (HOP-62) was 52 µM (inactive) and the GI50 (M14) was 67.6 µM (inactive). The GI50 (ACHN) was 38.5 µM (inactive), the GI50 (SNB-75) was 19.1 µM (inactive) and the GI50 (SK-MEL-28) was > 100 µM (inactive). For the same compound, the GI50 (U-251) was 65.6 µM (inactive), the GI50 (SN12C) was 96.2 µM (inactive) and the GI50 (786-0) was 96.4 µM (inactive). The GI50 (A549) was 48.8 µM (inactive), the GI50 (OVCAR-4) was 56.2 µM (inactive) and the GI50 (CCRF-CEM) was 36.6 µM (inactive). For the same compound, the GI50 (HCC 2998) was 52.5 µM (inactive), the GI50 (HCT-15) was 42.3 µM and the GI50 (KM12) was 39.9 µM (inactive). For the same compound, the GI50 (EKVX) was 30.3 µM (inactive), the GI50 (HCT-116) was 53.1 µM (inactive) and the GI50 (PC-3) was 36.9 µM (inactive). For the same compound, the GI50 (IGROV-1) was 26.5 µM (inactive), the GI50 (SK-MEL-5) was 30.7 µM (inactive) and the GI50 (MDA-MB-231) was > 100 µM (inactive). The GI50 (HT-29) was 63 µM (inactive), the GI50 (MDA-N) was 96.8 µM (inactive) and the GI50 (MOLT-4) was 2.5 µM (inactive). The GI50 (RPMI-8226) was 42.7 µM (inactive), the GI50 (BT-549) was 39.4 µM (inactive) and the GI50 (Hs-578T) was 26.3 µM (inactive). For the same compound, the GI50 (SNB-19) was 83.2 µM (inactive), the GI50 (MDA-MB-435) was 51.5 µM (inactive) and the GI50 (RXF 393) was 24.3 µM (inactive).
With `COC(=O)[C@H](Cc1ccccc1)NC(=O)N(CCC#N)CCN(C(=O)N[C@@H](Cc1ccccc1)C(=O)OC)c1ccccc1` the GI50 (UO-31) was 17.6 µM (inactive), the GI50 (OVCAR-8) was 37.8 µM (inactive) and the GI50 (HOP-92) was 18.7 µM (inactive). The GI50 (NCI/ADR-RES) was > 100 µM (inactive), the GI50 (SK-MEL-2) was 18.5 µM (inactive) and the GI50 (SF-295) was 33.8 µM (inactive). The GI50 (CAKI-1) was 20 µM (inactive), the GI50 (DU-145) was 29.1 µM (inactive) and the GI50 (T47D) was 20.2 µM (inactive). The GI50 (A498) was 23 µM (inactive), the GI50 (MCF7) was 38.5 µM (inactive) and the GI50 (COLO 205) was 25 µM (inactive). The GI50 (UACC-62) was 3.34 µM (inactive), the GI50 (NCI-H226) was 30 µM (inactive) and the GI50 (LOX IMVI) was 22.5 µM (inactive). For the same compound, the GI50 (OVCAR-5) was > 100 µM (inactive), the GI50 (TK-10) was 20 µM (inactive) and the GI50 (SF-539) was 20.8 µM (inactive). The GI50 (SW-620) was 35.1 µM (inactive), the GI50 (NCI-H23) was 32.7 µM (inactive) and the GI50 (UACC-257) was 20 µM (inactive). The GI50 (OVCAR-3) was 19.9 µM (inactive), the GI50 (SF-268) was 22.8 µM (inactive) and the GI50 (SK-OV-3) was 46.8 µM (inactive). The GI50 (HOP-62) was 41.1 µM (inactive), the GI50 (M14) was 24.9 µM (inactive) and the GI50 (ACHN) was 18.9 µM (inactive). For the same compound, the GI50 (SNB-75) was 17.5 µM (inactive), the GI50 (SK-MEL-28) was 18.2 µM (inactive) and the GI50 (U-251) was > 10 µM (inactive). For the same compound, the GI50 (SN12C) was 32.2 µM (inactive), the GI50 (786-0) was 9.2 µM (inactive) and the GI50 (A549) was 47.1 µM (inactive). The GI50 (OVCAR-4) was 23.6 µM (inactive), the GI50 (CCRF-CEM) was 27.2 µM (inactive) and the GI50 (HCC 2998) was 28.2 µM (inactive). For the same compound, the GI50 (HCT-15) was 38.5 µM, the GI50 (KM12) was 37.3 µM (inactive) and the GI50 (EKVX) was 29.5 µM (inactive). The GI50 (HCT-116) was 28.1 µM (inactive), the GI50 (PC-3) was 32.1 µM (inactive) and the GI50 (IGROV-1) was 20.8 µM (inactive). For the same compound, the GI50 (SK-MEL-5) was 22.9 µM (inactive), the GI50 (MDA-MB-231) was 26.7 µM (inactive) and the GI50 (MDA-N) was 17.5 µM (inactive). For the same compound, the GI50 (MOLT-4) was 16.6 µM (inactive), the GI50 (RPMI-8226) was 21 µM (inactive) and the GI50 (BT-549) was 49.3 µM (inactive). For the same compound, the GI50 (Hs-578T) was 32.7 µM (inactive), the GI50 (SNB-19) was 49.5 µM (inactive) and the GI50 (MDA-MB-435) was 18.9 µM (inactive). The GI50 (RXF 393) was 18.2 µM (inactive).
